# Measured values from patent publication US4272437A, “Antibacterial agents, and 4-thio azetidinone intermediates” (priority 1979, dated 1981).
# Like-named read-outs stand apart in the source and are kept apart here.
# Key:
# Pr. mirabilis A-9900 = assay: MIC, tube dilution, Proteus mirabilis A9900; type: cell-based; conditions: Proteus mirabilis, A9900, Proteus mirabilis A9900; overnight 37° C.; read-out: Minimum Inhibitory Concentration (M.I.C.)
# Excerpt: (§1) Representative compounds of the present invention were subjected to in vitro antibiotic screening against a variety of microorganisms.
# Str. pneumoniae A-9585 = assay: MIC, tube dilution, Streptococcus pneumoniae A9585; type: cell-based; conditions: Streptococcus pneumoniae, A9585, Str. pneumoniae A9585; overnight 37° C., Nutrient Broth; read-out: Minimum Inhibitory Concentration (M.I.C.)
# Excerpt: as §1
# [1] = system: Staph. aureus A-9537 and 50% serum; assay: MIC, tube dilution, Staph. aureus A9537 + 50% serum; type: cell-based, Staphylococcus aureus; conditions: Staphylococcus aureus, overnight 37° C., read-out: Minimum Inhibitory Concentration (M.I.C.)
# Excerpt: as §1
# [2] = system: Staph. aureus (Meth-Res) A-15097; assay: MIC, tube dilution, Staphylococcus aureus A15097 (Meth-Res); type: cell-based; conditions: Staph. aureus A15097 (Meth-Res), overnight 37° C.; for MIC: Staphylococcus aureus, read-out: Minimum Inhibitory Concentration (M.I.C.)
# Excerpt: as §1
# Ps. aeruginosa A-21213 = assay: MIC, tube dilution, Pseudomonas aeruginosa A21213; type: cell-based; conditions: overnight 37° C., read-out: Minimum Inhibitory Concentration (M.I.C.)
# Excerpt: as §1
# Ent. cloacae A-9659 = assay: MIC, tube dilution, Enterobacter cloacae A9659; type: cell-based; conditions: Enterobacter cloacae, A9659, Enterobacter cloacae A9659; overnight 37° C.; read-out: Minimum Inhibitory Concentration (M.I.C.)
# Excerpt: as §1
# Pr. morganii A-15153 = assay: MIC, tube dilution, Proteus morganii A15153; type: cell-based; conditions: Morganella morganii, A15153, Proteus morganii A15153; overnight 37° C.; read-out: Minimum Inhibitory Concentration (M.I.C.)
# Excerpt: as §1
# Staph. aureus A-9537 = assay: MIC, tube dilution, Staphylococcus aureus A9537; type: cell-based; conditions: overnight 37° C., Nutrient Broth; for MIC: Staphylococcus aureus, A9537, Staph. aureus A9537, read-out: Minimum Inhibitory Concentration (M.I.C.)
# Excerpt: as §1
# [3] = system: Staph. aureus (Pen-Res) A-9606; assay: MIC, tube dilution, Staphylococcus aureus A9606 (Pen-Res); type: cell-based; conditions: Staphylococcus aureus, Staph. aureus A9606 (Pen-Res); overnight 37° C.; read-out: Minimum Inhibitory Concentration (M.I.C.)
# Excerpt: as §1
# Str. pyogenes A-9604 = assay: MIC, tube dilution, Streptococcus pyogenes A9604; type: cell-based; conditions: overnight 37° C., Nutrient Broth; for MIC: Streptococcus pyogenes, A9604, Str. pyogenes A9604, read-out: Minimum Inhibitory Concentration (M.I.C.)
# Excerpt: as §1
# Proteus rettgeri A21203 = assay: MIC, tube dilution, Proteus rettgeri A21203; type: cell-based; conditions: Providencia rettgeri, overnight 37° C., read-out: Minimum Inhibitory Concentration (M.I.C.)
# Excerpt: as §1
# [4] = system: Klebsiella species A20468; assay: MIC, tube dilution, Klebsiella species A20468; type: cell-based; conditions: Klebsiella species (K. pneumoniae) A20468; overnight 37° C.; read-out: Minimum Inhibitory Concentration (M.I.C.)
# Excerpt: as §1
# Ent. cloacae A-9656 = assay: MIC, tube dilution, Enterobacter cloacae A9656; type: cell-based; conditions: overnight 37° C., read-out: Minimum Inhibitory Concentration (M.I.C.)
# Excerpt: as §1
# K. pneumoniae A-15130 = assay: MIC, tube dilution, Klebsiella pneumoniae A15130; type: cell-based; conditions: Klebsiella pneumoniae, A15130, K. pneumoniae A15130; overnight 37° C.; read-out: Minimum Inhibitory Concentration (M.I.C.)
# Excerpt: as §1
# E. coli A-15119 = assay: MIC, tube dilution, Escherichia coli A15119; type: cell-based; conditions: Escherichia coli, A15119, E. coli A15119; overnight 37° C.; read-out: Minimum Inhibitory Concentration (M.I.C.)
# Excerpt: as §1
# Str. faecalis A-20688 = assay: MIC, tube dilution, Streptococcus faecalis A20688; type: cell-based; conditions: Enterococcus faecalis, A20688, Str. faecalis A20688; overnight 37° C.; read-out: Minimum Inhibitory Concentration (M.I.C.)
# Excerpt: as §1
# Ps. aeruginosa A-9843A = assay: MIC, tube dilution, Pseudomonas aeruginosa A9843A; type: cell-based; conditions: Pseudomonas aeruginosa, A9843A, read-out: Minimum Inhibitory Concentration (M.I.C.), Pseudomonas aeruginosa A9843A; overnight 37° C.
# Excerpt: as §1
# Ser. marcescens A-20019 = assay: MIC, tube dilution, Serratia marcescens A20019; type: cell-based; conditions: Serratia marcescens, A20019, Serratia marcescens A20019; overnight 37° C.; read-out: Minimum Inhibitory Concentration (M.I.C.)
# Excerpt: as §1
# E. coli A-20341-1 = assay: MIC, tube dilution, Escherichia coli A20341-1; type: cell-based
# Excerpt: as §1
# Proteus vulgaris A21559 = assay: MIC, tube dilution, Proteus vulgaris A21559; type: cell-based; conditions: Proteus vulgaris, A21559, Proteus vulgaris A21559; overnight 37° C.; read-out: Minimum Inhibitory Concentration (M.I.C.)
# Excerpt: as §1
# [5] = Escherichia coli, A203411; E. coli A20341-1; overnight 37° C.; read-out: Minimum Inhibitory Concentration (M.I.C.)
# [6] = Pseudomonas aeruginosa, A21213, Pseudomonas aeruginosa A21213
# [7] = A21203, Proteus rettgeri A21203
# [8] = Enterobacter cloacae, A9656, Enterobacter cloacae A9656
# [9] = Escherichia coli, A203411, E. coli A20341-1; overnight 37° C.; read-out: Minimum Inhibitory Concentration (M.I.C.)
smiles,measurement,setting,value
"Cc1cc(C)n(CC2=C(C(=O)O)N3C(=O)CC3S2)n1 (centres unmarked) [Example 77, Sodium 2-(3,5-Dimethyl-1H-pyrazolemethyl)-penem-3-carboxylate]",MIC,Pr. mirabilis A-9900,2 µg/mL
same,MIC,Str. pneumoniae A-9585,0.03 µg/mL
same,MIC,[1],> 63 µg/mL
same,MIC,[2],16 µg/mL
same,MIC,Ps. aeruginosa A-21213; Pseudomonas aeruginosa A21213,> 125 µg/mL
same,MIC,Ent. cloacae A-9659,> 125 µg/mL
same,MIC,Pr. morganii A-15153,16 µg/mL
same,MIC,Staph. aureus A-9537,0.13 µg/mL
same,MIC,[3],4 µg/mL
same,MIC,Str. pyogenes A-9604,0.5 µg/mL
same,MIC,Proteus rettgeri A21203; Proteus rettgeri A21203,> 125 µg/mL
same,MIC,[4],> 125 µg/mL
same,MIC,Ent. cloacae A-9656; Enterobacter cloacae A9656,125 µg/mL
same,MIC,K. pneumoniae A-15130,> 125 µg/mL
same,MIC,E. coli A-15119,4 µg/mL
same,MIC,Str. faecalis A-20688,125 µg/mL
same,MIC,Ps. aeruginosa A-9843A,> 125 µg/mL
same,MIC,Ser. marcescens A-20019,> 125 µg/mL
same,MIC,E. coli A-20341-1; [5],> 125 µg/mL
same,MIC,Proteus vulgaris A21559,63 µg/mL
NC=NCC1=C(C(=O)O)N2C(=O)CC2S1 (centres unmarked) [16 (6)],MIC,Pr. mirabilis A-9900,16 µg/mL
same,MIC,Str. pneumoniae A-9585,2 µg/mL
same,MIC,[1],63 µg/mL
same,MIC,[2],63 µg/mL
same,MIC,Ps. aeruginosa A-21213; [6],> 125 µg/mL
same,MIC,Ent. cloacae A-9659,63 µg/mL
same,MIC,Pr. morganii A-15153,32 µg/mL
same,MIC,Staph. aureus A-9537,4 µg/mL
same,MIC,[3],125 µg/mL
same,MIC,Str. pyogenes A-9604,4 µg/mL
same,MIC,Proteus rettgeri A21203; [7],32 µg/mL
same,MIC,[4],> 125 µg/mL
same,MIC,Ent. cloacae A-9656; [8],63 µg/mL
same,MIC,K. pneumoniae A-15130,125 µg/mL
same,MIC,E. coli A-15119,16 µg/mL
same,MIC,Str. faecalis A-20688,125 µg/mL
same,MIC,Ps. aeruginosa A-9843A,32 µg/mL
same,MIC,Ser. marcescens A-20019,63 µg/mL
same,MIC,E. coli A-20341-1; [9],125 µg/mL
same,MIC,Proteus vulgaris A21559,32 µg/mL
"C[C@@H](O)[C@H]1C(=O)N2C(C(=O)O)=C(COCCN)S[C@H]12 (relative stereo) [66,96]",MIC,Pr. mirabilis A-9900,1 µg/mL
same,MIC,Str. pneumoniae A-9585,0.03 µg/mL
same,MIC,[1],0.5 µg/mL
same,MIC,[2],1 µg/mL
same,MIC,Ps. aeruginosa A-21213; [6],8 µg/mL
same,MIC,Ent. cloacae A-9659,8 µg/mL
same,MIC,Pr. morganii A-15153,4 µg/mL
same,MIC,Staph. aureus A-9537,0.06 µg/mL
same,MIC,[3],0.25 µg/mL
same,MIC,Str. pyogenes A-9604,0.03 µg/mL
same,MIC,Proteus rettgeri A21203; [7],2 µg/mL
same,MIC,[4],2 µg/mL
same,MIC,Ent. cloacae A-9656; [8],2 µg/mL
same,MIC,K. pneumoniae A-15130,2 µg/mL
same,MIC,E. coli A-15119,0.5 µg/mL
same,MIC,Str. faecalis A-20688,4 µg/mL
same,MIC,Ps. aeruginosa A-9843A,16 µg/mL
same,MIC,Ser. marcescens A-20019,2 µg/mL
same,MIC,E. coli A-20341-1; [9],0.5 µg/mL
same,MIC,Proteus vulgaris A21559,1 µg/mL
"CC1=C(C(=O)O)N2C(=O)[C@@H]([C@@H](C)O)[C@H]2S1 (relative stereo) [Example 58, (1'R,5R,6R) and (1'S,5S,6S) 6-(1'-Hydroxy-1'-ethyl)-2-methylpenem-3-carboxylic Acid (isomer D)]",Minimum Inhibitory Concentration (M.I.C.),[2],16 µg/mL
same,Minimum Inhibitory Concentration (M.I.C.),Staph. aureus A-9537; Staph. aureus A9537,4 µg/mL
same,Minimum Inhibitory Concentration (M.I.C.),Str. pyogenes A-9604; Str. pyogenes A9604,2 µg/mL
"O=C(O)C1=C(Cn2cnnn2)SC2CC(=O)N12 (centres unmarked) [Example 76, Sodium 2-(1H-Tetrazolemethyl)-penem-3-carboxylate]",MIC,Pr. mirabilis A-9900,8 µg/mL
same,MIC,Str. pneumoniae A-9585,0.03 µg/mL
same,MIC,[1],> 63 µg/mL
same,MIC,[2],8 µg/mL
same,MIC,Ps. aeruginosa A-21213; Pseudomonas aeruginosa A21213,> 125 µg/mL
same,MIC,Ent. cloacae A-9659,16 µg/mL
same,MIC,Pr. morganii A-15153,16 µg/mL
same,MIC,Staph. aureus A-9537,1 µg/mL
same,MIC,[3],4 µg/mL
same,MIC,Str. pyogenes A-9604,0.5 µg/mL
same,MIC,Proteus rettgeri A21203; [7],8 µg/mL
same,MIC,[4],> 125 µg/mL
same,MIC,Ent. cloacae A-9656; [8],16 µg/mL
same,MIC,K. pneumoniae A-15130,63 µg/mL
same,MIC,E. coli A-15119,4 µg/mL
same,MIC,Str. faecalis A-20688,125 µg/mL
same,MIC,Ps. aeruginosa A-9843A,> 125 µg/mL
same,MIC,Ser. marcescens A-20019,16 µg/mL
same,MIC,E. coli A-20341-1; [5],> 125 µg/mL
same,MIC,Proteus vulgaris A21559,8 µg/mL
